Measurements: patent US20100310484A1, “NOVEL PEPTIDES, USE THEREOF IN COSMETIC AND COSMECEUTIC APPLICATIONS, AND COMPOSITIONS COMPRISING SAME” (Innovactiv Inc., priority 2007, published 2010)
Lip = lipoyl residue of R or S configuration

Assays:
normal human melanocytes = experiment: Comet test: internal photo protection against UVA- and UVB-induced DNA strand breaks; format: cell-based; conditions: peptide 3 × 10^−8 M, 2 h at 37° C., non treated cells 100%, irradiated cells 0%; for CGP (%) coefficient of genomic protection against UVA: then UVA 365 nm, 0.8 J/cm^2; for CGP (%) coefficient of genomic protection against UVB: then UVB 312 nm, 0.06 J/cm^2
Experimental: The proto protective ability of peptides A1 and B1 against UVA and UVB was evaluated using a Comet test according to the protocol of De Meo (De Meo et al. Mutation Res. 1991; 260; 295-306).
The comet test enables the quantification of DNA strand breaks induced by a genotoxic agent.
Material: Primary culture of normal human melanocytes.
Treatment: Cells were treated for 2 h at 37° C. with peptides A1 and B1 separately at 3×10^−8 M and then exposed to UVA (365 nm, 0.8 J/cm^2) or UVB (312 nm/0.06 J/cm^2).
Results are reported in Table 1 below as a coefficient of genomic protection against UVA or UVB (CGP %).

Keratinocytes NCTC-2544 = experiment: UVA-induced oxidative lesions (formation of 8-oxo D guanosine) in keratinocytes; format: cell-based, human; conditions: 24 h + 30 min re-stimulation, UVA 15 J/cm^2, UVA-irradiated cells 100%, non treated cells 0%
Experimental: Material: Keratinocytes NCTC-2544.
Treatment: Keratinocytes were incubated with either peptide (A1 or B1) for 24 h, re-stimulated with the same peptide for 30 minutes and then irradiated with UVA (15 J/cm^2).
Results: The cells exposed to UVs are subjected to damages/lesions induced by oxidative stress. The oxydative damages or lesions were monitored with the formation of 8-oxo D guanosine and the effect of the peptides was expressed as a percentage of inhibition of the production of oxidative damages/lesions.

[1] = tested on: IL-1α-induced IL-8 production; experiment: Inhibition of IL-1α-induced IL-8 production (ELISA) in normal human dermal fibroblasts; format: cell-based; conditions: concomitant with IL-1α for 24 hours
glutathione = experiment: Glutathione regeneration in the presence of a superoxide anion by fluorometry (HRP/scopoletine); format: biochemical; conditions: glutathione 10^−4 to 5×10^−5 M with or without peptide 10^−4 to 5×10^−5 M, HRP 3 μg/ml, reading at 180 seconds
Excerpt: Peroxydase (Horseradish peroxydase or HRP) transforms H2O2 into O2^•− which reacts on fluorescent scopoletine and transforms it into a non fluorescent species. A rapid decrease in fluorescence is observed as a function of O2^•− release. In the presence of a scavenger for radical O2^•− (such as glutathione), the decrease in fluorescence is less pronounced. (Antioxidant Characterisation, Methodology and Mechanism, Barry Halliwell, Biochemical Pharmacology, 49, 1341-1348, (1995)) and (The scopoletin assay for hydrogen peroxide, a review and a better method, Jean T. Corbett, J. Biochem. Biophys. Methods, 18, 297-308 (1989)).
Material: A fluorometer set at 394 nm (excitation state) with a slot of 6, and 455 nm (emitting state) with a slot of 8 was used. Continuous data collection was made over a period of 180 seconds. The data obtained at the end of 180 seconds was compared to that obtained with a negative control (without scavenger) and that with a positive control (without free radicals).
The tested mixture comprised HRP (3 μg/ml), scopoletine (5×10^−6M), glutathione (10^−4 to 5×10^−5M), with or without peptide B1 (10^−4 to 5×10^−5 M). An oxygenated water (H2O2) solution was added immediately before reading the first fluorescence measure.
Results are presented in FIG. 3 and are expressed as the percentage of radical scavenging activity as compared to the positive control. […]

Substance	CGP (%) coefficient of genomic protection against UVA (normal human melanocytes)	CGP (%) coefficient of genomic protection against UVB (normal human melanocytes)	% INHIBITION of the production of oxidative damages/lesions (Keratinocytes NCTC-2544; peptide 1 nM)	% INHIBITION of the production of oxidative damages/lesions (Keratinocytes NCTC-2544; peptide 100 nM)	INHIBITION of IL-8 production ([1]; peptide 10 pM)	INHIBITION of IL-8 production ([1]; peptide 1 nM)	glutathione regeneration activity (radical scavenging activity compared to positive control) (glutathione)
Lip-Lys-Gly-His-Lys-NH2 (Lip-KGHK-NH2) [Peptide A1]	93%	46.2%	−27%	−53%	–	–	–
Lip-His-DPhe-Arg-Trp-NH2 [Peptide B1]	69.9%	85.8%	−50%	−76%	56%	60%	displayed a glutathione regeneration activity
